In paper PMC4865847, “Putative histidine kinase inhibitors with antibacterial effect against multi-drug resistant clinical isolates identified by in vitro and in silico screens” (Scientific Reports, 2016):
In brackets after ≈: the same amount, converted by molar mass. Where two headings read alike, the source gives them in different places.

How the values were obtained:
[1] = test system: Escherichia coli; test: Antibacterial susceptibility testing (MIC/MBC), E. coli; format: cell-based; settings: Escherichia coli; for MIC: read-out: MIC E. coli CFT 073
Description: (§1) Minimal inhibitory concentrations (MICs) were determined following a standard double-dilution method. […] For S. pneumoniae MICs were determined by adapting the standard double-dilution method to anaerobic conditions and of this microorganism (use of Todd Hewitt Yeast extract with 200 U/mL of catalase and continuous monitoring of growth).

[2] = biological target: T1, S. pneumoniae WalK (Streptococcus pneumoniae, UniProt Q8DPL8); test: In vitro autophosphorylation kinase assay with γ-32P-ATP, WalK; format: biochemical; settings: autophosphorylation, one time point (30 sec), 10% DMSO
T1 construct: WalK (amino acids from 208 to 449); N-terminal His6-3C site of vector pOPINF (own knowledge of the vector); made in house; host or cells: E. coli RIL
Description: (§2) To evaluate the inhibitory capacity of selected hits from DSF, SBVS and LBSS in vitro autophosphorylation kinase assays with γ-^32P-ATP were performed as previously described. Ligands were dissolved in 100% DMSO. […] Controls lacking ligands contained an equal concentration of DMSO. Inhibition of autophosphorylation was determined by incubating 0.12 mg/ml (≈4 μM) HK and up to 20 mM fragment in kinase buffer (50 mM Tris HCl, pH 8.5, 50 mM KCl, 5 mM MgCl2, 0.5 mM EDTA and 0.1 mM DTT). Autophosporylation reactions were initiated by addition of 0.1 μCi/μl γ-^32P-ATP containing from 0.03 to 0.06 μM ATP (final concentrations). Autophosphorylation was quenched with 2xSDS-PAGE sample buffer supplemented with 50 mM EDTA. […] After electrophoresis, the bottoms of the gels were removed to lower the background from the unincorporated radiolabeled ATP. Gels were dried without staining on a Bio-Rad Gel Air drying system and the phosphorylated protein was quantified by phosphor-imaging. Prism GraphPad was used for curve fitting and statistical analysis.

[3] = test system: Staphylococcus aureus; test: Antibacterial susceptibility testing (MIC/MBC), S. aureus; format: cell-based; settings: Staphylococcus aureus
Description: as §1

[4] = biological target: T2, E. coli PhoR (PhoR^E) (Escherichia coli, UniProt P08400); test: In vitro autophosphorylation kinase assay with γ-32P-ATP, PhoR^E; format: biochemical; settings: for IC50: autophosphorylation, one time point (30 sec), 10% DMSO; for inhibition at 2000 µM: 2 mM, 30 sec, compared to negative control
T2 construct: The catalytic portion (DHp and CA domain) of E. coli PhoR (PhoR^E); made in house; host or cells: E. coli RIL
Description: as §2

[5] = test system: Staphylococcus epidermidis; test: Antibacterial susceptibility testing (MIC/MBC), S. epidermidis; format: cell-based; settings: Staphylococcus epidermidis
Description: as §1

[6] = biological target: S. aureus PhoR (PhoR^S) (Staphylococcus aureus, UniProt Q2FXN7); test: In vitro autophosphorylation kinase assay with γ-32P-ATP, PhoR^S; format: biochemical; settings: for IC50: autophosphorylation, one time point (30 sec), 10% DMSO
Description: To evaluate the inhibitory capacity of selected hits from DSF, SBVS and LBSS in vitro autophosphorylation kinase assays with γ-^32P-ATP were performed as previously described. Ligands were dissolved in 100% DMSO. […] Controls lacking ligands contained an equal concentration of DMSO. Inhibition of autophosphorylation was determined by incubating 0.12 mg/ml (≈4 μM) HK and up to 20 mM fragment in kinase buffer (50 mM Tris HCl, pH 8.5, 50 mM KCl, 5 mM MgCl2, 0.5 mM EDTA and 0.1 mM DTT). Autophosporylation reactions were initiated by addition of 0.1 μCi/μl γ-^32P-ATP containing from 0.03 to 0.06 μM ATP (final concentrations). Autophosphorylation was quenched with 2xSDS-PAGE sample buffer supplemented with 50 mM EDTA. Samples were applied without heating to 15% (w/v) Tris-glycine SDS-polyacrylamide gels. After electrophoresis, the bottoms of the gels were removed to lower the background from the unincorporated radiolabeled ATP. Gels were dried without staining on a Bio-Rad Gel Air drying system and the phosphorylated protein was quantified by phosphor-imaging. Prism GraphPad was used for curve fitting and statistical analysis.

[7] = DSM20231, strain DSM 20231, read-out: MIC S. aureus DSM 20231
[8] = DSM20044, strain DSM 20044, read-out: MIC S. epidermidis DSM 20044
[9] = DSM20231, read-out: MIC S. aureus DSM 20231
[10] = DSM20044, read-out: MIC S. epidermidis DSM 20044

T2 sequence (P08400 210-425): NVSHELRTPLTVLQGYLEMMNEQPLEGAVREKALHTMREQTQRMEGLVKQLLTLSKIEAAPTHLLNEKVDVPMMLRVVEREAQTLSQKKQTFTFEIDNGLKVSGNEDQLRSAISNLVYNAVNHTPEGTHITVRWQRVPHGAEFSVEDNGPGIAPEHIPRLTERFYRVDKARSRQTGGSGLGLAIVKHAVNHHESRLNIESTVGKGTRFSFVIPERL
T1 sequence (Q8DPL8 208-449): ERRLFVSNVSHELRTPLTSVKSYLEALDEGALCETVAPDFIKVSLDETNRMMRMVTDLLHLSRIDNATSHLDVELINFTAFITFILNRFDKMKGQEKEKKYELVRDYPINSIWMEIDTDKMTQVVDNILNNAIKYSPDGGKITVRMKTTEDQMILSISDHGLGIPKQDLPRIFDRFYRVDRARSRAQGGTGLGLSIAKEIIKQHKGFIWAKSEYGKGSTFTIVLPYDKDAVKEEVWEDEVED
Sequence of S. aureus PhoR (PhoR^S) (Q2FXN7 entry or part of it): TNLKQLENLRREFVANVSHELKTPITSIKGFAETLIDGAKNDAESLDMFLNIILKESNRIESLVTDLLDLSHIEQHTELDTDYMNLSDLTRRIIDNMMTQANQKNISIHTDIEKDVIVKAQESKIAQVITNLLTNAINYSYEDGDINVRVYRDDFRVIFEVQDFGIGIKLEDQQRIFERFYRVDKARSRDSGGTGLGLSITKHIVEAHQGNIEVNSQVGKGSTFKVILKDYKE

Row | Structure (SMILES) | MIC ([1]; strain CFT 073) [µg/mL] | MIC [3, 7] [µg/mL] | IC50 ([4]; IC50 PhoR^E) [µM] | MIC [5, 8] [µg/mL] | IC50 ([6]; IC50 PhoR^S) [µM] | also measured
1 | Nc1nc(-c2ccc(Cl)cc2)cs1 [F1.2] | > 500 | > 500 | > 2000 | > 500 | – | IC50 ([2]; IC50 WalK): > 2000 µM
2 | Cc1ccc(-c2csc(N)n2)cc1 [F1.3] | > 500 | > 500 | > 2000 | 500 (≈ 2630 µM) | – | IC50 ([2]; IC50 WalK): > 2000 µM; MBC ([5]; DSM20044, strain DSM 20044): 500 µg/mL (≈ 2630 µM)
3 | CC(=O)Nc1ccc2c(c1)Cc1cc(Br)ccc1-2 [S1.20] | – | – | – | – | > 2000 | MIC [1]: > 500 µg/mL; MIC [3, 9]: > 500 µg/mL; IC50 ([4]; read-out: IC50 PhoR^E): > 2000 µM; MIC [5, 10]: > 500 µg/mL
4 | CC(=O)Nc1cccc(OCOc2ccc([N+](=O)[O-])cc2)c1 [S1.16] | > 500 | > 500 | > 2000 | > 500 | > 2000 | –
5 | CCn1c2ccccc2c2cc(NC(C)=O)ccc21 [S1.24] | > 500 | > 500 | > 2000 | > 500 | > 2000 | –
6 | CC(=O)Nc1ccc[n+](CC(=O)c2ccc(F)cc2)c1 [S1.5] | > 500 | > 500 | > 2000 | > 500 | > 2000 | –
7 | Cn1c2ccccc2c2ccccc21 [F2.6] | – | – | – | – | – | MBC ([1]; read-out: MBC E. coli CFT 073): 500 µg/mL (≈ 2760 µM); MIC [1]: > 500 µg/mL; IC50 ([2]; read-out: IC50 WalK): > 2000 µM; MIC [3, 9]: > 500 µg/mL; IC50 ([4]; read-out: IC50 PhoR^E): > 2000 µM; MIC [5, 10]: > 500 µg/mL
8 | CC(=O)Nc1ccc(C(=O)C(O)c2ccc(NC(C)=O)cc2)cc1 (stereo not shown) [S1.12] | > 500 | > 500 | > 2000 | > 500 | > 2000 | –
9 | CC(=O)Nc1cccc(Cc2cccc(NC(C)=O)c2)c1 [S1.4] | > 500 | > 500 | > 2000 | > 500 | > 2000 | –
10 | CCc1ccc2[nH]c3ccccc3c2c1 [F2.9] | > 500 | > 500 | < 2000 | > 500 | – | IC50 ([2]; IC50 WalK): > 2000 µM; MBC ([3]; DSM20231, strain DSM 20231, read-out: MBC S. aureus DSM 20231): > 500 µg/mL; inhibition at 2000 µM [4]: > 50%
11 | CCC(c1cccc(Br)c1)C(C(C)=O)c1ccc(OC)cc1 (stereo not shown) [S1.23] | > 500 | > 500 | > 2000 | > 500 | > 2000 | –
12 | CC(C)(C)c1ccc(OCc2c[nH]cn2)cc1 [F1.10] | > 500 | > 500 | > 2000 | > 500 | – | IC50 ([2]; IC50 WalK): > 2000 µM
13 | CC(=O)c1cccc(NC(=O)N(C)Cc2ccccc2)c1 [S1.25] | > 500 | > 500 | > 2000 | > 500 | > 2000 | –
14 | Brc1ccc(C2=CSC3=NCCN23)cc1 [F1.7] | > 500 | > 500 | > 2000 | > 500 | – | IC50 ([2]; IC50 WalK): > 2000 µM
15 | CC(=O)Nc1ccc(-c2ccc(F)cc2)cc1 [S1.2] | > 500 | > 500 | < 2000 | > 500 | – | inhibition at 2000 µM [4]: > 75%; IC50 ([6]; read-out: IC50 PhoR^S): < 2000 µM; inhibition at 2000 µM ([6]; read-out: inhibition of PhoR^S autophosphorylation): > 75%
16 | c1ccc2c(c1)[nH]c1ccccc12 [F2.5] | – | – | – | – | – | MIC [1]: > 500 µg/mL; IC50 ([2]; read-out: IC50 WalK): > 2000 µM; MIC [3, 9]: > 500 µg/mL; IC50 ([4]; read-out: IC50 PhoR^E): > 2000 µM; MIC [5, 10]: > 500 µg/mL
17 | CC(=O)Nc1ccc2c(c1)C(=Nc1ccc(F)cc1)c1ccccc1-2 [S1.10] | > 500 | > 500 | > 2000 | > 500 | > 2000 | –
